# In publication PMC8162438, “Cancer cell-selective modulation of mitochondrial respiration and metabolism by potent organogold(III) dithiocarbamates” (Chemical Science, 2020):
# Tested on: MRC5
# Experiment: MTT cell viability, human fetal lung fibroblasts MRC5
# Format: cell-based
# Conditions: 72 h
# Procedure: All the gold(III) dithiocarbamate compounds display remarkable cell killing potential in a panel of breast, ovarian, lung and leukemia cancers. Preliminary studies focused on different cancer cell lines (MDA-MB-231, MDA-MB-175, and A2780), an immortalized normal retinal epithelial cell line (RPE-NEO) and human fetal lung fibroblasts (MRC5) (Fig. S111–S129 ^†). These adherent cells were exposed to a serial-diluted concentration of all ten compounds for 72 h. The cells were subsequently treated with 3-(4,5-dimethylthiazol-2-yl)-2,5-diphenyltetrazolium bromide (MTT) solutions, dissolved with DMSO and the absorbance at 570 nm was measured with a plate-reader.
# In Vitro Biological Assays
# Cell Culture. All cell lines were purchased from ATCC and routinely grown in a humidified incubator at 37 °C with 5-10% CO 2. MDA-MB-231, MDA-MB-175, MRC5, RPE-NEO, H460, and K562 were grown in DMEM supplemented with 10% FBS, 1% amphotericin and 1% penicillin/streptomycin. A2780 cells were grown in RPMI supplemented with 10% FBS, 1% amphotericin, and 1% penicillin/streptomycin, and 4 mM glutamine. All supplements along with PBS and trypsin-EDTA were purchased from Corning Inc. and used as is. […]
# Cell Viability of 1a-1e and 2a-2e (Adherent Cell Lines). The cell viability of all 10 complexes were performed in MDA-MB-231, MDA-MB-175, A2780, RPE-NEO and MRC5. The cell viability of compound 2a was also determined in H460. Cells were grown to confluency and trypsin was added to detach and harvest cells. The cells were washed with 2 mL of PBS and suspended in 10 mL of the appropriate media. The cells were centrifuged at 2000 rpm for 5 minutes and the pellet washed with 2 mL of PBS then suspended in 5 mL of the appropriate […]
# media. The cells were plated at a density of 2,000 cells/well in a 96-well clear bottom plate and allowed to adhere overnight at 37 °C with 5-10% CO 2. The compounds were prepared as a stock in DMSO and used fresh. The compounds were added at seven concentrations with a 3x serial dilution starting at 50 µM for the highest concentration and incubated at 37 °C for 72 h with 5-10% CO 2. The medium was removed and a solution of MTT (100 µL, prepared by dissolving MTT at 5 mg/mL and diluting by 10x with DMEM) was added to each well and incubated for 4 h at 37 ° C with 5-10% CO 2. The dye was removed from each well and 100 µL of DMSO was added to induce cell lysis. The plates were read using a Genios plate reader (λ = 570 nm). The experiment was performed in triplicate and data are plotted as the mean ± s.e.m. (n = 3). Data for 2a can be found in the main text (Figure 6) and the other complexes can be seen in the supplementary figures (S111 – S129). […]
# Cells were grown to confluency and centrifuged at 2000 rpm for 5 minutes to collect the cell pellet. The cells were washed with 5 mL of PBS, suspended in 5 mL of DMEM, and centrifuged again at 2000 rpm for 5 minutes to collect the pellet. The pellet was then washed with 2 mL of PBS and suspended in 5 mL of DMEM. The cells were plated at density of 2,000 cells/well in a 96-well white bottom plate. 2a was prepared as a stock solution […]
# 10% CO 2. The cells were removed from the incubator and allowed to rest at room temperature for 30 minutes. To each designated well was then added 20 µL of CellTiter-Glo solution and orbitally shaken for 5 minutes and the luminescence (1000 ms integration and 150 ms gain) acquired on a Genios plate reader. The experiment was performed in triplicate. Data are plotted […]
# Apoptosis Analysis. […]
# A stock of 2a was prepared fresh in DMSO and added to the desired well at a concentration of 1 µM with a final volume of 2.5 mL and incubated for 4 h at 37 °C. A stock of H2O2 was prepared in PBS and the cells treated at a final concentration of 2 mM for 1 hour as a […]
row,Structure (SMILES),IC50 [µM]
1,C[N+](C)=C1[S][Au-2]2([S]1)[c]1ccccc1C(=O)c1cccc[n+]12.F[P-](F)(F)(F)(F)F (centres unmarked) [1a],> 50
2,C[N+](C)=C1[S][Au-2]2([S]1)[c]1ccccc1Cc1cccc[n+]12.F[P-](F)(F)(F)(F)F (centres unmarked) [2a],> 50
